The record followed here is patent US6171808A, “Mutant luciferases” (priority 1995, dated 2001).

The target of assay [1] is T1, Photinus pyralis luciferase variant 601aG1, E270K (270 lysine Km change), SEQ ID No 2 with Xaa = lysine (Photinus pyralis, UniProt P08659, E270K).
T1 construct: made in house; host or cells: E. coli BL21 (DE3) (pPW601G1)
The experiment in a line: Km determination with respect to ATP, luminometric luciferase assay. Format: biochemical. To be noted: read-out: Km value with respect to ATP; 21° C., tricine pH7.8, 470 μM D-luciferin, 6.25 to 400 μM ATP. The source says:
The Km mutant was initially generated by hydroxylamine induced mutagenesis of the luc gene within pPW304 to provide plasmid 304 G1 bearing a single base change in the DNA sequence at 811 of SEQ ID No 1 resulting in an amino acid glutamate change to lysine at position 270. A 1.1 kb DNA fragment (BstE II/Stu I) was cloned from pPW304 and used to replace the corresponding fragment in pP601a to form pPW601G1, thus providing a luc gene encoding for luciferase without the four extra amino acids encoded by pPW304 (M not included from M-A-R-I-Q).

Assay [2] addresses Photinus pyralis luciferase variant 601aK, E354K (thermostable mutant 354 lysine) (Photinus pyralis, UniProt P08659, E354K). Particulars: read-out: Km value with respect to ATP; 21° C., tricine pH7.8, 470 μM D-luciferin, 6.25 to 400 μM ATP.
In assay [3] the target is T2, Photinus pyralis luciferase, recombinant wild-type (601a) (Photinus pyralis, UniProt P08659).
T2 construct: made in house; host or cells: E. coli JM109 (pPW601a, derived from pDR540 and the luc gene of pGEM-luc)
T2 sequence (P08659 whole entry): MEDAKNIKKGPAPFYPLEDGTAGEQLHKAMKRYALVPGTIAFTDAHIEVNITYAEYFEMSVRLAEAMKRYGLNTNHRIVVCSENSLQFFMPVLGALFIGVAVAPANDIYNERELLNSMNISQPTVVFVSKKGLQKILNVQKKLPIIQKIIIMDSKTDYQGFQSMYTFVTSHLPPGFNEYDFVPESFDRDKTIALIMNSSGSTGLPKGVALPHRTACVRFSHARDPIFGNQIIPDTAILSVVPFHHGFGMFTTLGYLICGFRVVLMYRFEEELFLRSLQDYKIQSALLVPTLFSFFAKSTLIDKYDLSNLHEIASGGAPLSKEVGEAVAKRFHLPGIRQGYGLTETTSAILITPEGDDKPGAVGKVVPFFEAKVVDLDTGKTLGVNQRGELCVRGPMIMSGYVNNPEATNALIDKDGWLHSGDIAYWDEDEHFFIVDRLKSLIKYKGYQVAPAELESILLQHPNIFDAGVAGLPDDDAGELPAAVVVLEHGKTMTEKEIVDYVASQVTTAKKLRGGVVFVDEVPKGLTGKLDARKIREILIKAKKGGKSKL
Nature of the assay: Km determination with respect to ATP, luminometric luciferase assay. Format: biochemical. To be noted: 21° C., tricine pH7.8, 470 μM D-luciferin, 6.25 to 400 μM ATP.

For assay [4], the target named is T3, Photinus pyralis luciferase double mutant 601aG1K, E270K + E354K, SEQ ID No 4 (Photinus pyralis, UniProt P08659, E270K/E354K).
T3 construct: made in house; host or cells: E. coli JM109 (pPW601aG1K, pDR540-derived)
T3 sequence (P08659 whole entry E270K/E354K): as the sequence (P08659 whole entry) above, with E270K, E354K counted along it
Described as above. In kind it is biochemical. Particulars: read-out: Km value with respect to ATP; 21° C., tricine pH7.8, 470 μM D-luciferin, 6.25 to 400 μM ATP.

Photinus pyralis luciferase variant 601aK, E354K (thermostable mutant 354 lysine), sequence (P08659 whole entry E354K): as the sequence (P08659 whole entry) above, with E354K counted along it
T1 sequence (P08659 whole entry E270K): as the sequence (P08659 whole entry) above, with E270K counted along it

In general, Km refers to the substrate concentration at which the rate is half of its maximum. As for `Nc1ncnc2c1ncn2[C@@H]1O[C@H](COP(=O)(O)OP(=O)(O)OP(=O)(O)O)[C@@H](O)[C@H]1O` [ATP, adenosine triphosphate], the Km in assay [1] turned out to be 28.7 µM; in assay [2], 61.3 µM; in assay [3], 66.1 µM; in assay [4], 25.2 µM.
